The text below walks through data of patent US10670605B2, “Cysteine reactive probes and uses thereof” (The Scripps Research Institute, priority 2015, dated 2020).

Common to all, as to test: isoTOP-ABPP of compound-treated primary human T cells
Format in all cases: cell-based

In assay [1] the target is Cys residues in primary human T cells (Homo sapiens, UniProt Q7Z6Z7). Conditions: HUWE1 C3372 (Q7Z6Z7).
Assay [2] concerns the target T1, Cys residues in primary human T cells (Homo sapiens, UniProt O95081).
T1 sequence (O95081 1-481): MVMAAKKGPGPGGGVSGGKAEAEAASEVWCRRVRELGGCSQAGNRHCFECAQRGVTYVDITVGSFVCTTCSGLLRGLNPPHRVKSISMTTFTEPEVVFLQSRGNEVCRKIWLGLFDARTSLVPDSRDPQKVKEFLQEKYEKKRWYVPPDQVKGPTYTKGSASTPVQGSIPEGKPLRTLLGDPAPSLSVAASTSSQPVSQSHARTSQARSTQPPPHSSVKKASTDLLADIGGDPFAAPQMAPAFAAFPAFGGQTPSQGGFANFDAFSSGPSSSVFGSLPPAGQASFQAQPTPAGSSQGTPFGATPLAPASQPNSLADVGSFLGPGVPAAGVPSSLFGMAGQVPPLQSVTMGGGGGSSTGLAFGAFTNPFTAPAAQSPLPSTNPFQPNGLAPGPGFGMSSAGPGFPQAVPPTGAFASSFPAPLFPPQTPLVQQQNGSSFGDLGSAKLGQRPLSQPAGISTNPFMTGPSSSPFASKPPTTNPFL
Conditions: AGFG2 C39 (O95081).

Assay [3] addresses T2, Cys residues in primary human T cells (Homo sapiens, UniProt Q9Y277).
T2 sequence (Q9Y277 1-283): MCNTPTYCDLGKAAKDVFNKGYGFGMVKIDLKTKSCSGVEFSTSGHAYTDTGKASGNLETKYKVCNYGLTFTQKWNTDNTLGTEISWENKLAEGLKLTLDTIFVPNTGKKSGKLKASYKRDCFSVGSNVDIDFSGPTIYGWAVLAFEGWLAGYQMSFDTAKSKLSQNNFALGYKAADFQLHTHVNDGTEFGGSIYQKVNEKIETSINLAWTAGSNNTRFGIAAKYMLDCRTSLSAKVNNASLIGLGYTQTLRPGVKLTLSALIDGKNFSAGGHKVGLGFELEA

Assay [4] concerns the target T3, Cys residues in primary human T cells (Homo sapiens, UniProt Q13045).
T3 sequence (Q13045 1-1269): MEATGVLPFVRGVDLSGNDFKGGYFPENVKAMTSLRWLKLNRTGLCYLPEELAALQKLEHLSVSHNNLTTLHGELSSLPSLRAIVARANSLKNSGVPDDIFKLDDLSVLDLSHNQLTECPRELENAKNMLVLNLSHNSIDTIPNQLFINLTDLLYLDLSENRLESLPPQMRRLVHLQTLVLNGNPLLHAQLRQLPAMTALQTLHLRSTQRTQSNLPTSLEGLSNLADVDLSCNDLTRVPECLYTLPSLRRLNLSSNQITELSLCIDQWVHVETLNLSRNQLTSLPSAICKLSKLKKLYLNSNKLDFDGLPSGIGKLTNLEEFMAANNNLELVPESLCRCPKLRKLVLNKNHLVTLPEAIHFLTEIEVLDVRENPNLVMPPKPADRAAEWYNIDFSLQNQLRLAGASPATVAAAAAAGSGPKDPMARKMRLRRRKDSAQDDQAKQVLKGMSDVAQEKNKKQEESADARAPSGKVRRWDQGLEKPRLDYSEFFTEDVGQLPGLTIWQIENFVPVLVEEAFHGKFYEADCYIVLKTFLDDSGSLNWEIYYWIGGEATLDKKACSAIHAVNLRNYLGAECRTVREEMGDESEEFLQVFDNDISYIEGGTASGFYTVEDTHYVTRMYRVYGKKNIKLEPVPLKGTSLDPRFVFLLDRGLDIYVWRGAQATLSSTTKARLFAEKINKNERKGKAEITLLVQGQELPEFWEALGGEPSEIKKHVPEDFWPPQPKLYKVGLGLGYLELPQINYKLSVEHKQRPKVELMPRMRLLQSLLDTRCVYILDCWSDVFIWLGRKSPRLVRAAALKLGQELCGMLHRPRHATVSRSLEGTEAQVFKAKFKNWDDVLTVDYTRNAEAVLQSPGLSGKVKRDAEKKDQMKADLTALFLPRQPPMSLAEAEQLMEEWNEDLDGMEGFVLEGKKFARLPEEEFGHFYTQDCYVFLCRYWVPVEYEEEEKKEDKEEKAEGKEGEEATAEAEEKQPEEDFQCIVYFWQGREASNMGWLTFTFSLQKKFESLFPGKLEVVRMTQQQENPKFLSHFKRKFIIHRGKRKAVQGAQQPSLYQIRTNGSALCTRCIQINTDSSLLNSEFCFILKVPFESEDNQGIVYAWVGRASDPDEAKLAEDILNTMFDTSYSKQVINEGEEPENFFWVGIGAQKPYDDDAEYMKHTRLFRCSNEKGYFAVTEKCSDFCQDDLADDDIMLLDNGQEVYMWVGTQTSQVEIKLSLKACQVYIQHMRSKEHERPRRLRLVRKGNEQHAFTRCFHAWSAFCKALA
As to conditions: FLU Protein flightless-1 homolog C46 (Q13045).

Where a name gives a salt, the structure may show the parent alone.

Chain of Cys residues in primary human T cells (Homo sapiens, UniProt Q7Z6Z7) (Q7Z6Z7 whole entry): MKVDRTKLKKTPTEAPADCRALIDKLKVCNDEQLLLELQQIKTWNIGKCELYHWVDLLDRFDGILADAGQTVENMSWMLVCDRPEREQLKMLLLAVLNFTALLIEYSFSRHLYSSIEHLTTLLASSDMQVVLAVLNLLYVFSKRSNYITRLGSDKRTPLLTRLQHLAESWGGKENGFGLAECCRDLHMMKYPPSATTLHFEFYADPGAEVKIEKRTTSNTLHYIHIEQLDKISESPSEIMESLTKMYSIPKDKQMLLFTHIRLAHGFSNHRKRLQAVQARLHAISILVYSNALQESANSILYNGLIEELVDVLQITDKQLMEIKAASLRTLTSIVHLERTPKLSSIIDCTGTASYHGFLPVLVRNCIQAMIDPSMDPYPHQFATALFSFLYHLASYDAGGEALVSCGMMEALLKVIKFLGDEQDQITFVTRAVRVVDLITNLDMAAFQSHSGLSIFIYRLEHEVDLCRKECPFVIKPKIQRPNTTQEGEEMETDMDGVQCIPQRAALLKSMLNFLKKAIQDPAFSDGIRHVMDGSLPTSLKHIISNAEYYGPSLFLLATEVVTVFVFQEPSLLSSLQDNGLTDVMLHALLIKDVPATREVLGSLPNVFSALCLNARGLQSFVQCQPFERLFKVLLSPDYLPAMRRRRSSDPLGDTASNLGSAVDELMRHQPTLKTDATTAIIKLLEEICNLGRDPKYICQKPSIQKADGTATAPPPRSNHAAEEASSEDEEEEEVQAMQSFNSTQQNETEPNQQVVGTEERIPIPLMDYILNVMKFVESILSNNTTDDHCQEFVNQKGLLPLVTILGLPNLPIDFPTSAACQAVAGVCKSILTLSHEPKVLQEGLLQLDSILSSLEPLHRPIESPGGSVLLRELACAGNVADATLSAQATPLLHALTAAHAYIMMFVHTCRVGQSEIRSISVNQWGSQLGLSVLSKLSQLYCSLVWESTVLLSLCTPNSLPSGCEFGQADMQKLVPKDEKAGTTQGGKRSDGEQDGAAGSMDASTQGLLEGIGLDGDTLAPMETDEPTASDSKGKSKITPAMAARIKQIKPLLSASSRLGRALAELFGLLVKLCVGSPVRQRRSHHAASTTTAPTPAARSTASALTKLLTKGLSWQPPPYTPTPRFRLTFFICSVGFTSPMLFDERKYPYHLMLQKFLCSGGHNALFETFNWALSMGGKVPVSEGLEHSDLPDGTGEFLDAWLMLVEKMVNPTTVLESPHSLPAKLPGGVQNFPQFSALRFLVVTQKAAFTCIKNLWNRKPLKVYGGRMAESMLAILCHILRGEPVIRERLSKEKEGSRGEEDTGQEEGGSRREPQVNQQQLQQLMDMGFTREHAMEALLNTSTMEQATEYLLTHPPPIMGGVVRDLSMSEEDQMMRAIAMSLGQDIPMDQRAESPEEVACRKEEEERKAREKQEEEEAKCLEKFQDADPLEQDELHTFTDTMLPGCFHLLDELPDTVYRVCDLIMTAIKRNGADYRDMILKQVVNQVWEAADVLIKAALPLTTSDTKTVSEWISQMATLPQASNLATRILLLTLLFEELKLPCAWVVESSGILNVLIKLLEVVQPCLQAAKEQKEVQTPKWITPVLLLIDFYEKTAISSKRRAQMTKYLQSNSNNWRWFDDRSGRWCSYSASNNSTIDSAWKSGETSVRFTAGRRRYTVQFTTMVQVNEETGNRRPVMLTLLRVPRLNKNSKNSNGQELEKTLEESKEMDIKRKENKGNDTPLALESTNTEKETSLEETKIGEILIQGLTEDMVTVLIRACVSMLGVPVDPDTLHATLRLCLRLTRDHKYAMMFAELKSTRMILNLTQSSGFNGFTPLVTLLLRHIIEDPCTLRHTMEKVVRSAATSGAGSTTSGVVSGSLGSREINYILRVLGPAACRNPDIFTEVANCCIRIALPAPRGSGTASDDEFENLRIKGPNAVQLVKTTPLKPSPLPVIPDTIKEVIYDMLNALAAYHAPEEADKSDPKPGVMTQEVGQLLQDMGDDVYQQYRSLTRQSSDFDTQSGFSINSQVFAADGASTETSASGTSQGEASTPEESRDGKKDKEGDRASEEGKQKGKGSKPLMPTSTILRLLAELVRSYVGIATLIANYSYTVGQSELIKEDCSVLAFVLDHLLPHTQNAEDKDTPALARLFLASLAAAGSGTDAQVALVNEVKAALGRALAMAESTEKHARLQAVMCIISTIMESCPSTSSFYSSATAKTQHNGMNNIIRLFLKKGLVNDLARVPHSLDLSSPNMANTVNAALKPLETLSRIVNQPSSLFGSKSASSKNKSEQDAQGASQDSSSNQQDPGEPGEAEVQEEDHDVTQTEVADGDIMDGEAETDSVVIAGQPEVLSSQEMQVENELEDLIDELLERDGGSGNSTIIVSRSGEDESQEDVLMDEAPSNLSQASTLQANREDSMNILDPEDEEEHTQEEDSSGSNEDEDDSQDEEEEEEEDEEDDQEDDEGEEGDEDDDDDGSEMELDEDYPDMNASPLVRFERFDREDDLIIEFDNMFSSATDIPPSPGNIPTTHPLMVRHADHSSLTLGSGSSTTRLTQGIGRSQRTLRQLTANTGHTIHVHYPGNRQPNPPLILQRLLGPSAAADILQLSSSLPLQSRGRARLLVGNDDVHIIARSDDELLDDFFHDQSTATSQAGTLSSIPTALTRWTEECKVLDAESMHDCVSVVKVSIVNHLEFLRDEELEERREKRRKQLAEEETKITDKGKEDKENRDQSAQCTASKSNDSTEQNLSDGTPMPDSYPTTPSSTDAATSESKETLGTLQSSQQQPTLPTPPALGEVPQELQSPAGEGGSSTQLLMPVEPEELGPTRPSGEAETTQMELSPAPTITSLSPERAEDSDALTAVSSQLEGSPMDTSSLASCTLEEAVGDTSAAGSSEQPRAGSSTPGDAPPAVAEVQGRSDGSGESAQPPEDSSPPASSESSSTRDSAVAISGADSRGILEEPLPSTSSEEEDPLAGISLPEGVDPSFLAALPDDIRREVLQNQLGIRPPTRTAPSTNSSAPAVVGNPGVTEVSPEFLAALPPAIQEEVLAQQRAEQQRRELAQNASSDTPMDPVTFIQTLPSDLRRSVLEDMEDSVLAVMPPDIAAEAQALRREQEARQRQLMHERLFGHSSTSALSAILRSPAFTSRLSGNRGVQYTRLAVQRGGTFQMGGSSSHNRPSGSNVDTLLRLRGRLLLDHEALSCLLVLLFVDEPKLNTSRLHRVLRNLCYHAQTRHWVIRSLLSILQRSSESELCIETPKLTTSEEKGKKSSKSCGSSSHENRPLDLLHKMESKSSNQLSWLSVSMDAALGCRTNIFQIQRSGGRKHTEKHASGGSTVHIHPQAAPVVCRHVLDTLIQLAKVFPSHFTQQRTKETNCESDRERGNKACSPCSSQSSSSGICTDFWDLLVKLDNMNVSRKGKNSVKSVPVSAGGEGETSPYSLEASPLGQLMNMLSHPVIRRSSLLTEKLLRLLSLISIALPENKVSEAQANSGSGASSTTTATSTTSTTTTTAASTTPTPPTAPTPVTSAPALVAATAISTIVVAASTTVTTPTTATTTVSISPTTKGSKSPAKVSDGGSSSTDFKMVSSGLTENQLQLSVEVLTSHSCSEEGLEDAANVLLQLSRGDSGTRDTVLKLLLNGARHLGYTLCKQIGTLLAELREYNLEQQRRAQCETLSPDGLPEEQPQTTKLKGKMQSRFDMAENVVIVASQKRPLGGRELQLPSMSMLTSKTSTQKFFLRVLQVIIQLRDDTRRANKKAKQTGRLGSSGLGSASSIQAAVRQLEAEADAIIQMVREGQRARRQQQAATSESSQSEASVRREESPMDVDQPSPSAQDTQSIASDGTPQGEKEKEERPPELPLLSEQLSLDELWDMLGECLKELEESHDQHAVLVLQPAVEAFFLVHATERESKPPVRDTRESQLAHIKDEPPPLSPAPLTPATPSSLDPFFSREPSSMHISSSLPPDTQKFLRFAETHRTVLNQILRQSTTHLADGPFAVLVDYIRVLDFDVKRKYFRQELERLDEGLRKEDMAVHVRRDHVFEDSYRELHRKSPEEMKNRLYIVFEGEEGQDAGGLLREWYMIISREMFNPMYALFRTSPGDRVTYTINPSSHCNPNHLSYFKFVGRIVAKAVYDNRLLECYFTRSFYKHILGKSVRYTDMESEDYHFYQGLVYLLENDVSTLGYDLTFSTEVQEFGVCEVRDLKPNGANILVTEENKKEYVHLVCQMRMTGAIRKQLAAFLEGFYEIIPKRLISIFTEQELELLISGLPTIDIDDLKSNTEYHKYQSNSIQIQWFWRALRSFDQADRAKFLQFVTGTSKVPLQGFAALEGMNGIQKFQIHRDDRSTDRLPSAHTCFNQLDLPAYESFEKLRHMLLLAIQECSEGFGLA

As to `COC(=O)/C=C/C(=O)OC` [DMF, dimethyl fumarate], the “R value (DMSO/DMF)” value was 1.58 in assay [1] (DMF 10 μM 4h); 2.28 in assay [1] (DMF 50 μM 1h); 4.43 in assay [1] (DMF 50 μM 2h); 10.48 in assay [1] (DMF 50 μM 4h); 1.42 in assay [2] (DMF 10 μM 4h); 3.85 in assay [2] (DMF 50 μM 2h). The “R value (DMSO/DMF)” value in assay [2] (DMF 50 μM 4h) amounted to 6.39; in assay [3] (VDAC3 C36 (Q9Y277), DMF 50 μM 1h) it was 3.21; in assay [3] (VDAC3 C36 (Q9Y277), DMF 50 μM 2h) it was 3.98; in assay [3] (VDAC3 C36 (Q9Y277), DMF 50 μM 4h), 4.11; in assay [3] (VDAC3 C65 (Q9Y277), DMF 10 μM 4h), 1.73; in assay [3] (VDAC3 C65 (Q9Y277), DMF 25 μM 4h) it was 5.64. Further, the “R value (DMSO/DMF)” value is 3.35 in assay [3] (VDAC3 C65 (Q9Y277), DMF 50 μM 1h); 7.53 in assay [3] (VDAC3 C65 (Q9Y277), DMF 50 μM 2h); 15.94 in assay [3] (VDAC3 C65 (Q9Y277), DMF 50 μM 4h); 1.55 in assay [4] (DMF 10 μM 4h); 2.05 in assay [4] (DMF 50 μM 1h); 3.57 in assay [4] (DMF 50 μM 2h). In addition, in assay [4] (DMF 50 μM 4h), the “R value (DMSO/DMF)” value was 4.5.
